From US6583154B1, “Compounds and methods which modulate feeding behavior and related diseases” (Amgen Inc., priority 1998, dated 2003)
Where a name gives a salt, the structure may show the parent alone.

How the values were obtained:
Long-Evans male rats [1] = experiment: Icv administration of compounds in food-deprived Long-Evans male rats, food intake; format: in vivo; conditions: Long-Evans male rats food deprived for 16 hours; I.C.V. injection in DMSO, 20 μl; 4 hours post-injection; vehicle 8.69 ± 0.53; * significantly different from vehicle, p < 0.05
Protocol: Protocol for Icv Administration of Compounds in Food-Deprived Long-Evans Male Rats
(§1) Adult male Long-Evans rats (approx. 275 g) were obtained from Charles River Laboratories (Wilmington, MA) and given one week to acclimate to the animal facility. Animals were housed individually and given ad-lib access to food and water. After acclimation, animals were anesthetized (75 mg/kg Sodium Nembutal) and implanted with 23 g cannulas (Plastics One, Roanoke, VA) into the right lateral cerebral ventricle. All animals were given at least 1 week post-operative recover before any experiment.
Animals were food deprived for 16 hours prior to injections. Intracerebroventricular injection of compounds was done in awake, unrestrained animals in a DMSO vehicle in a volume of 20 μl. Immediately following the injection, the animals were returned to their home cage and were provided with a pre-weighed portion of regular rat chow pellets. Total food consumed was measured at 2 and 4 hours post-injection.

pNPY induced feeding = experiment: Icv administration of NPY antagonists against pNPY induced feeding in satiated Long-Evans male rats; format: in vivo; conditions: I.C.V. antagonist in DMSO 20 μl, about 15 min later 5 μl pNPY, high sucrose mash, 4 hours post-injection, vehicle 5.29 ± 0.97, * significantly different from vehicle, p < 0.05
Protocol: Protocol for Icv Administration of NPY Antagonists Against pNPY Induced Feeding in Satiated Long-Evans Male Rats
as §1
Approximately 16 hours prior to injection, animals were provided with access to 30 grams of a sucrose/condensed milk/rat chow mash along with their regular chow. Ninety minutes prior to injections, regular chow was removed from the cages and animals were provided with a fresh portion of the high sucrose mash. Intracerebroventricular injection of antagonist or vehicle was done in awake, unrestrained animals in a DMSO vehicle in a volume of 20 μl. Approximately 15 minutes after the administration of the antagonist or vehicle, animals were given a second 5 μl injection of either water or pNPY. After the second injection, the portion of high sucrose mash was weighed and total food consumed was measured at 2 and 4 hours post-injection.

Long-Evans male rats [2] = experiment: IP administration of compounds in fasted Long-Evans male rats, 2 hr food intake; format: in vivo; conditions: Rattus norvegicus; male Long Evans rats fasted 18-20 hr; 30 mg/kg (ip) in 2% tween; food given after 30 min, weighed 2 hr later; vs vehicle; read-out: inhibition of feeding (2 hr food intake)
OB/OB female mice = experiment: Icv administration of compounds in ad-lib fed OB/OB female mice, food intake; format: in vivo; conditions: I.C.V. injection in 100% DMSO, 5 μl, 4 hours post-injection, vehicle 0.61 ± 0.10, * significantly different from vehicle, p < 0.05
Excerpt: Protocol For Icv Administration of Compounds In Ad-Lib Fed OB/OB Female Mice.
Eight week old (approx. 50 g) OB/OB female mice were obtained from Jackson Laboratories (Bar Harbor, ME) and given one week to acclimate to the animal facility before the experiment. Animals were housed 10 per cage and were provided with food and water ad-lib. Immediately prior to injection, animals were removed from group housing and lightly anesthetized using 4% isofluorane vapor. Freehand intracerebroventricular (“icv”) injection of compounds was done in a 100% DMSO vehicle in a volume of 5 μl. Immediately following the injection, animals were placed in individual cages and were provided with a pre-weighed portion of regular chow pellets. Total amount of food consumed was measured at 1, 2, 4 and 24 hours post-injection.

Male BALB-C mice = experiment: IP administration of compounds in fasted male BALB-C mice, 2 hr food intake; format: in vivo; conditions: Mus musculus; male BALB-C mice fasted 18-20 hr; 30 mg/kg (ip) in 2% tween; food given after 30 min, weighed 2 hr later; vs vehicle; read-out: inhibition of feeding (2 hr food intake)
Excerpt: Protocol For IP Administration Of Compounds In Male BALB-C Mice.
Male BALB-C mice (20-25 g)were obtained from Charles Rivers (Wilmington, Mass.) and were given at least a one week acclimation period to Amgen's animal care facilities. Animals were housed 10/cage and were provided ad libitum food and water. For testing, mice were fasted for 18-20 hr (overnight) prior to the start of the experiment. On the day of the experiment, mice were removed from group housing and placed into individual cages (without food). Test compounds or vehicle was then administered via the intraperitoneal (i.p.) route of administration. Test compounds were suspended in a 2% tween solution; the 2% tween solution was used as the vehicle treatment (control group). Group sizes for each treatment were 6-8 animals. After 30 min, premeasured food was placed into the cages. Two hours later, the food was weighed again. The difference between 2 hr weight and the premeasured weight was taken as 2 hr food intake.

SMILES | melting point | 4 hr food intake (g ± S.E.M.) (Long-Evans male rats [1]) | 4 hr food intake (g ± S.E.M.) (pNPY induced feeding) | inhibition in vivo at 30 mg/kg (Long-Evans male rats [2]) | 4 hr food intake (g ± S.E.M.) (OB/OB female mice) | inhibition in vivo at 30 mg/kg (Male BALB-C mice)
CCN(CC)c1nc(C)nc2cc(-c3ccccc3)[nH]c12 [Example 1f, Diethyl(2-methyl-6-phenylpyrrolo[2,3-e]pyrimidin-4-yl)amine] | 184 to 185 °C | 5.13 ± 1.40* g | – | – | – | –
Cc1nc(N2CCc3ccccc3C2)c2[nH]c(-c3ccccc3)cc2n1 [Example 2] | 251 to 253 °C (dec.) | – | 3.35 ± 0.62* g | – | – | –
Cc1nc(N2CCCCC2)c2[nH]c(-c3ccccc3)cc2n1 [Example 35, 2-methyl-6-phenyl-4-(piperidinyl)pyrrolo[3,2-d]pyrimidine] | – | – | – | ≥ 10% | 0.29 ± 0.11* g | ≥ 10%
Cl.c1ccc(-c2cc3nc(C4CC4)nc(N4CCCCC4)c3[nH]2)cc1 [Example 69c, 2-Cyclopropyl-6-phenyl-4-piperidylpyrrolo[3,2-d]pyrimidine Hydrochloride] | 285.4 to 286 °C (dec.) | – | – | ≥ 10% | – | ≥ 10%
Cc1nc(N2CCCCC2)c2[nH]c(-c3cccs3)cc2n1.Cl [Example 76c, 2-(2-Methyl-4-piperidylpyrrolo[4,5-d]pyrimidin-6-yl)thiophene Hydrochloride] | > 280 °C | – | – | ≥ 10% | – | ≥ 10%
CCc1nc(N2CCCCC2)c2oc(-c3ccc(Cl)cc3)cc2n1 [Example 96, 6-(4-Chlorophenyl)-2-ethyl-4-piperidinylfurano[3,2-d]pyrimidine] | > 288 °C | – | – | ≥ 10% | – | ≥ 10%
CCCc1nc(N2CCCCC2)c2[nH]c(-c3ccccc3)cc2n1 [Example 196c, 6-Phenyl-4-piperidyl-2-propylpyrrolo[3,2-d]pyrimidine Hydrochloride Monohydrate] | – | – | – | ≥ 10% | – | ≥ 10%
Cc1nc(N2CC=CC2)c2[nH]c(-c3cccc(C(F)(F)F)c3)cc2n1 [Example 197d, 2-Methyl-4-(3-pyrrolinyl)-6-[3-(trifluoromethyl)phenyl]pyrrolo[3,2-d]pyrimidine Hydrochloride Monohydrate] | – | – | – | ≥ 10% | – | ≥ 10%
Cc1nc(N2CC=CC2)c2[nH]c(-c3cccc(Cl)c3)cc2n1 [Example 198, 6-(3-Chlorophenyl)-2-methyl-4-(3-pyrrolinyl)pyrrolo[3,2-d]pyrimidine Hydrochloride Hydrate] | – | – | – | ≥ 10% | – | ≥ 10%
Cc1nc(N2CCCCC2)c2sc(-c3ccc(F)cc3)cc2n1 [Example 217, 6-(4-Fluorophenyl)-2-methyl-4-piperidylthiopheno[3,2-d]pyrimidine Hydrochloride Hydrate] | – | – | – | ≥ 10% | – | ≥ 10%
